Data: the supplement of paper PMC10307832

Experiments:
Experiment in all cases: relative viability (nuclei count vs DMSO), 5 days (fraction); higher = more cells survive
[1] = compound: C(C(=O)C(=O)O)Br [Bromopyruvate] + CC(=O)Nc1cccc(-n2c(=O)n(C3CC3)c(=O)c3c(Nc4ccc(I)cc4F)n(C)c(=O)c(C)c32)c1 [Trametinib] (partner 0.02 µM)
Summary of the method: (§1)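 Five library-drug doses in √10 steps were combined with a fixed anchor-drug dose, or a single drug was given alone, by pin tool to lung cancer cell lines in 1536-well plates the day after seeding. Nuclei were stained and counted after 5 days. Relative viability is the nuclei count in treated wells over that in vehicle wells, taken as the median of duplicate plates.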

[2] = compound: CC(O)(CS(=O)(=O)c1ccc(F)cc1)C(=O)Nc1ccc(C#N)c(C(F)(F)F)c1 [Bicalutamide] + CS(=O)(=O)N1CCN(Cc2cc3nc(-c4cccc5[nH]ncc45)nc(N4CCOCC4)c3s2)CC1 [Pictilisib] (partner 1 µM)
Summary of the method: as §1

Bicalutamide + Olaparib = compound: CC(O)(CS(=O)(=O)c1ccc(F)cc1)C(=O)Nc1ccc(C#N)c(C(F)(F)F)c1 [Bicalutamide] + O=C(c1cc(Cc2n[nH]c(=O)c3ccccc23)ccc1F)N1CCN(C(=O)C2CC2)CC1 [Olaparib] (partner 8 µM)
Summary of the method: as §1

[3] = compound: C(C(=O)C(=O)O)Br [Bromopyruvate] + CCNC(=O)c1noc(-c2cc(C(C)C)c(O)cc2O)c1-c1ccc(CN2CCOCC2)cc1 [Luminespib] (partner 0.01 µM)
Summary of the method: as §1

**Q.** Which relative viability ([1]; first compound 1 µM) does the source give for SK-MES-1 here?
**A.** The relative viability was 0.631.

**Q.** What about the relative viability ([1]; first compound 3.162 µM) of the same cell line?
**A.** The relative viability was 0.547.

**Q.** What about the relative viability ([1]; first compound 10 µM) of the same cell line?
**A.** The relative viability was 0.511.

**Q.** And the relative viability ([1]; first compound 31.62 µM)?
**A.** The relative viability was 0.578.

**Q.** What about the relative viability ([1]; first compound 100 µM) of the same cell line?
**A.** Its relative viability is 0.574.

**Q.** What about the relative viability ([2]; first compound 0.08 µM) of the same cell line?
**A.** The relative viability was 0.351.

**Q.** And the relative viability ([2]; first compound 0.253 µM)?
**A.** The relative viability was 0.39.

**Q.** What about the relative viability ([2]; first compound 0.8 µM) of the same cell line?
**A.** Its relative viability is 0.382.

**Q.** And the relative viability ([2]; first compound 2.53 µM)?
**A.** Its relative viability is 0.357.

**Q.** What about the relative viability (Bicalutamide + Olaparib; first compound 0.08 µM) of the same cell line?
**A.** Its relative viability is 0.825.

**Q.** And the relative viability (Bicalutamide + Olaparib; first compound 0.253 µM)?
**A.** The relative viability was 0.711.

**Q.** What about the relative viability (Bicalutamide + Olaparib; first compound 0.8 µM) of the same cell line?
**A.** Its relative viability is 0.773.

**Q.** What about the relative viability (Bicalutamide + Olaparib; first compound 2.53 µM) of the same cell line?
**A.** The relative viability was 0.561.

**Q.** And the relative viability ([3]; first compound 1 µM)?
**A.** Its relative viability is 0.615.

**Q.** And the relative viability ([3]; first compound 3.162 µM)?
**A.** The relative viability was 0.882.

**Q.** And the relative viability ([3]; first compound 10 µM)?
**A.** Its relative viability is 0.948.

**Q.** And the relative viability ([3]; first compound 31.62 µM)?
**A.** Its relative viability is 0.805.

**Q.** And the relative viability ([3]; first compound 100 µM)?
**A.** The relative viability was 0.881.

**Q.** With SW 1573 as the cell line, how does the relative viability ([1]; first compound 1 µM) read?
**A.** Its relative viability is 0.582.

**Q.** And the relative viability ([1]; first compound 3.162 µM)?
**A.** Its relative viability is 0.576.

**Q.** What about the relative viability ([1]; first compound 10 µM) of the same cell line?
**A.** The relative viability was 0.608.

**Q.** What about the relative viability ([1]; first compound 31.62 µM) of the same cell line?
**A.** Its relative viability is 0.432.

**Q.** What about the relative viability ([1]; first compound 100 µM) of the same cell line?
**A.** The relative viability was 0.0469.

**Q.** And the relative viability ([2]; first compound 0.08 µM)?
**A.** Its relative viability is 0.564.

**Q.** What about the relative viability ([2]; first compound 0.253 µM) of the same cell line?
**A.** Its relative viability is 0.475.

**Q.** And the relative viability ([2]; first compound 0.8 µM)?
**A.** The relative viability was 0.461.

**Q.** What about the relative viability ([2]; first compound 2.53 µM) of the same cell line?
**A.** The relative viability was 0.535.

**Q.** And the relative viability (Bicalutamide + Olaparib; first compound 0.08 µM)?
**A.** The relative viability was 0.542.

**Q.** What about the relative viability (Bicalutamide + Olaparib; first compound 0.253 µM) of the same cell line?
**A.** The relative viability was 0.525.

**Q.** And the relative viability (Bicalutamide + Olaparib; first compound 0.8 µM)?
**A.** Its relative viability is 0.428.

**Q.** What about the relative viability (Bicalutamide + Olaparib; first compound 2.53 µM) of the same cell line?
**A.** The relative viability was 0.472.

**Q.** And the relative viability ([3]; first compound 1 µM)?
**A.** Its relative viability is 0.214.

**Q.** What about the relative viability ([3]; first compound 3.162 µM) of the same cell line?
**A.** The relative viability was 0.212.

**Q.** And the relative viability ([3]; first compound 10 µM)?
**A.** The relative viability was 0.562.

**Q.** And the relative viability ([3]; first compound 31.62 µM)?
**A.** Its relative viability is 0.135.

**Q.** And the relative viability ([3]; first compound 100 µM)?
**A.** Its relative viability is 0.0625.
